Measured values from patent publication US9376442B2, “Methylpyrrolopyrimidinecarboxamides” (Takeda GmbH, priority 2009, dated 2016).

Target: T1, PDE5A1 (Homo sapiens, UniProt O76074)
T1 construct: from tissue; host or cells: human platelets from fresh donor blood (10,000 x g supernatant of sonicated lysate)
Assay: Inhibition of type 5 phosphodiesterase (PDE5) activity, modified SPA test with human platelet lysate
Format: biochemical
Settings: 0.5 μM cGMP, read-out: PDE5A1 inhibitory values [measured as −log IC50 (mol/l)] (converted)
Protocol: Method for Measuring Inhibition of the Type 5 Phosphodiesterase (PDE5) Activity:
As a source for human PDE5, platelets are used. For that purpose, 150 ml fresh blood from human donors anticoagulated with citrate [final concentration 0.3% (w/v)] is centrifuged at 200 g for 10 min to obtain the so-called platelet-rich-plasma (PRP) as a supernatant. 1/10 volume of ACD solution (85 mM Na3-citrate, 111 mM D-glucose, 71 mM citric acid, pH 4.4) is added to 9/10 volume of PRP. After centrifugation (1,400 g, 10 min) the cell pellet is resuspended in 3 ml homogenization buffer (NaCl 140 mM, KCl 3.8 mM, EGTA (ethylene glycol tetraacetic acid) 1 mM, MgCl2 1 mM, Tris-HCl 20 mM, beta-mercaptoethanol 1 mM, pH 8.2) plus protease-inhibitor mix giving rise to the final concentrations of 0.5 mM Pefablock (Roche), 10 μM Leupeptin, 5 μM Trypsininhibitor, 2 mM Benzamidin and 10 μM Pepstatin A. The suspension is sonified and thereafter centrifuged for 15 min at 10,000 g. The resulting supernatant (platelet lysate) is used for enzymatic testings.
PDE5A1 activity is inhibited by the compounds of the present subject matter in a modified SPA (scintillation proximity assay) test, supplied by Amersham Biosciences (see procedural instructions “phosphodiesterase [3H]cAMP SPA enzyme assay, code TRKQ 7090”), carried out in 96-well microtitre plates (MTP's). The test volume is 100 μl and contains 20 mM Tris buffer (pH 7.4), 0.1 mg of BSA (bovine serum albumin)/ml, 5 mM Mg^2+, 1 μM motapizone, 10 nM PDE2 inhibitor 2-(3,4-dimethoxybenzyl)-7-[(1R,2R)-2-hydroxy-1-(2-phenylethyl)propyl]-5-methylimidazo[5,1-f][1,2,4]triazin-4(3H)-one, 0.5 μM cGMP (cyclic guanosine monophosphate) (including about 50,000 cpm of [3H]cGMP as a tracer), 1 μl of the respective compound dilution in dimethylsulfoxide (DMSO) and sufficient PDE5-containing platelet lysat (10,000×g supernatant, see above) to ensure that 10-20 wt % of the cGMP is converted under the said experimental conditions. […] After a preincubation of 5 min at 37° C., the reaction is started by adding the substrate (cGMP) and the assay is incubated for a further 15 min; after that, it is stopped by adding SPA beads (50 μl). In accordance with the manufacturer's instructions, the SPA beads had previously been resuspended in water, but are then diluted 1:3 (v/v) in water; the diluted solution also contains 3 mM […] (IBMX) to ensure a complete PDE activity stop. After the beads have been sedimented (>30 min), the MTP's are analyzed in commercially available luminescence detection devices. The corresponding IC50 values of the compounds for the inhibition of PDE activity are determined from the concentration-effect curves by means of non-linear regression.

Row | Compound | IC50 [nM]
1 | COCC(=O)N1CC[C@@H](NC(=O)c2c(C)[nH]c3c(-c4cc(F)ccc4OCC4CC4)ncnc23)C1 [Example E48, 4-[2-(Cyclopropylmethoxy)-5-fluorophenyl]-N-[(3R)-1-(methoxyacetyl)pyrrolidin-3-yl]-6-methyl-5H-pyrrolo[3,2-d]pyrimidine-7-carboxamide] | 1 to 10
2 | CC(=O)N1C[C@@H](O)[C@H](NC(=O)c2c(C)[nH]c3c(-c4c(OCC5CC5)ccc5c4OCO5)ncnc23)C1 (relative stereo) [Example E16, N-[(3R*,4R*)-1-acetyl-4-hydroxypyrrolidin-3-yl]-4-[5-(cyclopropylmethoxy)-1,3-benzodioxol-4-yl]-6-methyl-5H-pyrrolo[3,2-d]pyrimidine-7-carboxamide] | < 1
3 | COc1cc(-c2ncnc3c(C(=O)N[C@@H]4CN(C(C)=O)C[C@H]4O)c(C)[nH]c23)c(OCC2CC2)cc1F (relative stereo) [Example E183, N-[(3R*,4R*)-1-Acetyl-4-hydroxypyrrolidin-3-yl]-4-[2-(cyclopropylmethoxy)-4-fluoro-5-methoxyphenyl]-6-methyl-5H-pyrrolo[3,2-d]pyrimidine-7-carboxamide] | < 1
4 | COc1ccc(OCC2CC2)c(-c2ncnc3c(C(=O)NC4CCN(C(=O)C(C)O)CC4O)c(C)[nH]c23)c1 (mixture of isomers) [Example F50, Diastereomeric mixture of 4-[2-(Cyclopropylmethoxy)-5-methoxyphenyl]-N{(3R,4R)-3-hydroxy-1-[(2S)-2-hydroxypropanoyl]piperidin-4-yl}-6-methyl-5H-pyrrolo[3,2-d]pyrimidine-7-carboxamide and 4-[2-(Cyclopropylmethoxy)-5-methoxyphenyl]-N-{(3S,4S)-3-hydroxy-1-[(2S)-2-hydroxypropanoyl]piperidin-4-yl}-6-methyl-5H-pyrrolo[3,2-d]pyrimidine-7-carboxamide] | < 1
5 | CCC(=O)N1C[C@@H](O)[C@H](NC(=O)c2c(C)[nH]c3c(-c4ccc(OC)cc4OCC4CC4)ncnc23)C1 (relative stereo) [Example E64, 4-[2-(Cyclopropylmethoxy)-4-methoxyphenyl]-N-[(3R*,4R*)-4-hydroxy-1-propionylpyrrolidin-3-yl]-6-methyl-5H-pyrrolo[3,2-d]pyrimidine-7-carboxamide] | < 1
6 | COCC(=O)N[C@H]1CC[C@H](NC(=O)c2c(C)[nH]c3c(-c4c(OCC5CC5)ccc5c4OCO5)ncnc23)CC1 [Example E7, 4-[5-(Cyclopropylmethoxy)-1,3-benzodioxol-4-yl]-N-{trans-4-[(methoxyacetyl)amino]cyclohexyl}-6-methyl-5H-pyrrolo[3,2-d]pyrimidine-7-carboxamide] | < 1
7 | CC(=O)N[C@H]1CC[C@H](NC(=O)c2c(C)[nH]c3c(-c4cc(C(C)=O)ccc4OCC4CC4)ncnc23)CC1 [Example E166, N-[trans-4-(Acetylamino)cyclohexyl]-4-[5-acetyl-2-(cyclopropylmethoxy)phenyl]-6-methyl-5H-pyrrolo[3,2-d]pyrimidine-7-carboxamide] | < 1
8 | COc1ccc(OCC2CC2)c(-c2ncnc3c(C(=O)N[C@@H]4CCN(C(C)=O)C4)c(C)[nH]c23)c1 [Example E75, N-[(3R)-1-acetylpyrrolidin-3-yl]-4-[2-(cyclopropylmethoxy)-5-methoxyphenyl]-6-methyl-5H-pyrrolo[3,2-d]pyrimidine-7-carboxamide] | < 1
9 | COc1cc(OCC2CC2)c(-c2ncnc3c(C(=O)N[C@@H]4CCN(C(=O)[C@H](C)O)C4)c(C)[nH]c23)cc1F [Example F116, 4-[2-(Cyclopropylmethoxy)-5-fluoro-4-methoxyphenyl]-N-{(3R)-1-[(2S)-2-hydroxypropanoyl]pyrrolidin-3-yl}-6-methyl-5H-pyrrolo[3,2-d]pyrimidine-7-carboxamide] | < 1
10 | CCOc1ccc(F)cc1-c1ncnc2c(C(=O)NC3CCN(C(=O)COC)CC3)c(C)[nH]c12 [Example E54, 4-(2-Ethoxy-5-fluorophenyl)-N-[1-(methoxyacetyl)piperidin-4-yl]-6-methyl-5H-pyrrolo[3,2-d]pyrimidine-7-carboxamide] | 1 to 10
11 | CCC(=O)N1C[C@@H](O)[C@H](NC(=O)c2c(C)[nH]c3c(-c4cc(OC)c(F)cc4OCC4CC4)ncnc23)C1 (relative stereo) [Example E184, 4-[2-(Cyclopropylmethoxy)-4-fluoro-5-methoxyphenyl]-N-[(3R*,4R*)-4-hydroxy-1-propionylpyrrolidin-3-yl]-6-methyl-5H-pyrrolo[3,2-d]pyrimidine-7-carboxamide] | < 1
12 | CCOc1ccc(C(F)(F)F)cc1-c1ncnc2c(C(=O)NC3CCN(C(=O)CO)CC3)c(C)[nH]c12 [Example F63, 4-[2-Ethoxy-5-(trifluoromethyl)phenyl]-N-[1-(hydroxyacetyl)piperidin-4-yl]-6-methyl-5H-pyrrolo[3,2-d]pyrimidine-7-carboxamide] | < 1
13 | Cc1[nH]c2c(-c3c(OCC4CC4)ccc4c3OCO4)ncnc2c1C(=O)N[C@H]1CC[C@@H](NC(=O)[C@H](C)O)CC1 [Example F6, 4-[5-(Cyclopropylmethoxy)-1,3-benzodioxol-4-yl]-N-(cis-4-{[(2S)-2-hydroxypropanoyl]amino}cyclohexyl)-6-methyl-5H-pyrrolo[3,2-d]pyrimidine-7-carboxamide] | < 1
14 | COc1cc(-c2ncnc3c(C(=O)N[C@H]4CC[C@H](NC(=O)[C@H](C)O)CC4)c(C)[nH]c23)c(OCC2CC2)cc1F [Example F68, 4-[2-(Cyclopropylmethoxy)-4-fluoro-5-methoxyphenyl]-N-(trans-4-{[(2S)-2-hydroxypropanoyl]amino}cyclohexyl)-6-methyl-5H-pyrrolo[3,2-d]pyrimidine-7-carboxamide] | < 1
15 | COc1cc(OCC2CC2)c(-c2ncnc3c(C(=O)N[C@H]4CC[C@@H](NC(=O)[C@H](C)O)CC4)c(C)[nH]c23)cc1F [Example F88, 4-[2-(Cyclopropylmethoxy)-5-fluoro-4-methoxyphenyl]-N-(cis-4-{[(2S)-2-hydroxypropanoyl]amino}cyclohexyl)-6-methyl-5H-pyrrolo[3,2-d]pyrimidine-7-carboxamide] | < 1
16 | Cc1[nH]c2c(-c3c(OCC4CC4)ccc4c3OCO4)ncnc2c1C(=O)N[C@@H]1CCN(C(=O)CO)C1 [Example F7, 4-[5-(Cyclopropylmethoxy)-1,3-benzodioxol-4-yl]-N-[(3R)-1-glycoloylpyrrolidin-3-yl]-6-methyl-5H-pyrrolo[3,2-d]pyrimidine-7-carboxamide] | < 1
17 | COCC(=O)N1CC[C@@H](NC(=O)c2c(C)[nH]c3c(-c4ccc(F)cc4OCC4CC4)ncnc23)C1 [Example E30, 4-[2-(Cyclopropylmethoxy)-4-fluorophenyl]-N-[(3R)-1-(methoxyacetyl)pyrrolidin-3-yl]-6-methyl-5H-pyrrolo[3,2-d]pyrimidine-7-carboxamide] | < 1
18 | COc1cc(-c2ncnc3c(C(=O)N[C@@H]4CCN(C(=O)CO)C4)c(C)[nH]c23)c(OCC2CC2)cc1F [Example F111, 4-[2-(Cyclopropylmethoxy)-4-fluoro-5-methoxyphenyl]-N-[(3R)-1-glycoloylpyrrolidin-3-yl]-6-methyl-5H-pyrrolo[3,2-d]pyrimidine-7-carboxamide] | < 1
19 | COc1cc(OCC2CC2)c(-c2ncnc3c(C(=O)N[C@@H]4CCN(C(=O)CO)C[C@H]4O)c(C)[nH]c23)cc1F (relative stereo) [Example F89, 4-[2-(cyclopropylmethoxy)-5-fluoro-4-methoxyphenyl]-N-[(3R*,4R*)-3-hydroxy-1-(hydroxyacetyl)piperidin-4-yl]-6-methyl-5H-pyrrolo[3,2-d]pyrimidine-7-carboxamide] | < 1
20 | CCOC(=O)N[C@H]1CC[C@H](NC(=O)c2c(C)[nH]c3c(-c4cc(OC)c(F)cc4OCC4CC4)ncnc23)CC1 [Example E109, Ethyl {trans-4-[({4-[2-(cyclopropylmethoxy)-4-fluoro-5-methoxyphenyl]-6-methyl-5H-pyrrolo[3,2-d]pyrimidin-7-yl}carbonyl)amino]cyclohexyl}carbamate] | < 1
